Test results published in patent publication US8455497B2, “Inhibitors of aspartyl protease” (Vertex Pharmaceuticals Incorporated, priority 1999, dated 2013).
Like-named read-outs stand apart in the source and are kept apart here.

Key:
[1] = tested on: HIV-1 (strain IIIB); test: Antiviral activity assay in MT4 cells (propidium iodide based); type: cell-based
Procedure, shortened: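 MT4 cells infected with HIV-1 IIIB (MOI 100×TCID50, 1 hr, 37°C), diluted 6-fold into wells with serially diluted compound, incubated 5 days. Cells lysed with Nonidet-40; DNA content per well estimated by propidium iodide staining as the viability read-out, with mock-infected controls.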

[2] = tested on: D545701-14 multi protease inhibitor resistant virus; test: Anti-viral activity against resistant virus D545701-14 in MT4 cells; type: cell-based, HIV-1
Method: (§1) Exponentially growing MT4 cells were harvested and centrifuged at 1000 rpm for 10 min in a Jouan centrifuge (model CR 4 12). […] Cell aliquots were infected by the addition of HIV-1 (strain IIIB) diluted to give a viral multiplicity of infection of 100×TCID50. […] Cell infection was allowed to proceed for 1 hr at 37° in a tissue culture incubator with humidified 5% CO2 atmosphere. After the 1 hr incubation the virus/cell suspensions were diluted 6-fold with fresh medium, and 125 μl of the cell suspension was added to each well of the plate containing pre-diluted compound. Plates were then placed in a tissue culture incubator with humidified 5% CO2 for 5 days. At the end of the incubation period, 27 μl of 5% Nonidet-40 was added to each well of the incubation plate. After thorough mixing with a Costar multitip pipetter, 60 μl of the mixture was transferred to filter-bottomed 96-well plates. The plates were analyzed in an automated assay instrument (Screen Machine, Idexx Laboratories). The assay makes use of a propidium iodide dye to estimate the DNA content of each well.
(§2) Anti-Viral Activity Against Resistant Viruses
EP13 and DS45701, two multi protease inhibitor resistant viruses were used to assess potency against mutant viruses. These viruses contain the following mutations relative to the consensus sequence of wild type virus: […]

[3] = tested on: EP13 multi protease inhibitor resistant virus; test: Anti-viral activity against resistant virus EP13 in MT4 cells; type: cell-based, HIV-1
Method: as §1, §2
EP13 and DS45701, two multi protease inhibitor resistant viruses were used to assess potency against mutant viruses. These viruses contain the following mutations relative to the consensus sequence of wild type virus:
EP13: Protease amino acid sequence: M46I, L63P, A71V, V82F/L, I84V; No reverse transcriptase mutations.

[4] = Human immunodeficiency virus 1, IIIB, wild type HIV-1 virus, MT4 cells, read-out: Wildtype virus - IC50
[5] = Human immunodeficiency virus 1, MT4, read-out: D545701-14 mutant - IC50, D545701-14 multi protease inhibitor resistant virus, MT4 cells
[6] = Human immunodeficiency virus 1, MT4, read-out: EP13 mutant IC50, EP13 multi protease inhibitor resistant virus, MT4 cells
[7] = Human immunodeficiency virus 1, MT4, 120 h, MT-4 cells, HIV-1 strain IIIB, 5 days, read-out: IC50 (Antiviral Activity of Compounds of the Invention)
[8] = wild type HIV-1 virus, MT4 cells, read-out: Wildtype virus - IC50
[9] = D545701-14 multi protease inhibitor resistant virus, MT4 cells, read-out: D545701-14 mutant - IC50
[10] = EP13 multi protease inhibitor resistant virus, MT4 cells, read-out: EP13 mutant IC50

Which IC50 [1, 4] does the source give for `CC(C)CN(C[C@@H](O)[C@H](Cc1ccc(OCCCNc2cc[nH]n2)cc1)NC(=O)OC1CO[C@H]2OCC[C@@H]12)S(=O)(=O)c1ccc2c(c1)OCO2` (stereo in doubt) [Compound 281, (3R,3aS,6aR)-hexahydrofuro[2,3-b]furan-3-yl (1S,2R)-3-[(1,3-benzodioxol-5-ylsulfonyl)(isobutyl)amino]-2-hydroxy-1-{4-[3-(1H-pyrazol-3-ylamino)propoxy]benzyl}propylcarbamate] here?
The IC50 was 1 to 10 nM.

What about the IC50 [2, 5] of the same compound?
Its IC50 is 1 to 10 nM.

What about the IC50 [3, 6] of the same compound?
The IC50 was 1 to 10 nM.

`CNC(=O)CCCOc1ccc(C[C@H](NC(=O)OC2CO[C@H]3OCC[C@@H]23)[C@H](O)CN(CC(C)C)S(=O)(=O)c2ccc3c(c2)OCO3)cc1` (stereo in doubt) [Compound 286, (3R,3aS,6aR)-hexahydrofuro[2,3-b]furan-3-yl (1S,2R)-3-[(1,3-benzodioxol-5-ylsulfonyl)(isobutyl)amino]-2-hydroxy-1-{4-[4-(methylamino)-4-oxobutoxy]benzyl}propylcarbamate] was tested. Which IC50 [1, 4] did it give?
Its IC50 is 10 to 100 nM.

And the IC50 [2, 5]?
The IC50 was 1 to 10 nM.

And the IC50 [3, 6]?
Its IC50 is 1 to 10 nM.

Which IC50 [1, 4] does the source give for `CC(C)CN(C[C@@H](O)[C@H](Cc1ccc(OCCCC(=O)N(C)C)cc1)NC(=O)OC1CO[C@H]2OCC[C@@H]12)S(=O)(=O)c1ccc2c(c1)OCO2` (stereo in doubt) [Compound 287, (3R,3aS,6aR)-hexahydrofuro[2,3-b]furan-3-yl (1S,2R)-3-[(1,3-benzodioxol-5-ylsulfonyl)(isobutyl)amino]-1-{4-[4-(dimethylamino)-4-oxobutoxy]benzyl}-2-hydroxypropylcarbamate] here?
Its IC50 is 1 to 10 nM.

And the IC50 [2, 5]?
The IC50 was 1 to 10 nM.

What about the IC50 [3, 6] of the same compound?
The IC50 was 1 to 10 nM.

For `CC(C)CN(CC(O)[C@H](Cc1ccc(OCc2ccccn2)cc1)NC(=O)O[C@H]1CO[C@H]2OCC[C@H]21)S(=O)(=O)c1ccc2c(c1)OCCO2` (stereo in doubt) [Compound 337, (3R,3aS,6aR)-hexahydrofuro[2,3-b]furan-3-yl (1S,2S)-3-[(2,3-dihydro-1,4-benzodioxin-6-ylsulfonyl)(isobutyl)amino]-2-hydroxy-1-[4-(2-pyridinylmethoxy)benzyl]propylcarbamate], which IC50 [1, 4] is on record?
Its IC50 is 1 to 10 nM.

And the IC50 [2, 5]?
Its IC50 is 1 to 10 nM.

And the IC50 [3, 6]?
The IC50 was 1 to 10 nM.

For `CC(C)CN(C[C@@H](O)[C@H](Cc1ccc(OCc2cccnc2)cc1)NC(=O)O[C@H]1CO[C@H]2OCC[C@H]21)S(=O)(=O)c1ccc2c(c1)OCO2` [Compound 52, Bis-THF Methylenedioxybenzenesulfonamide 3-picolyl Tethered Product], which IC50 [1, 4] is on record?
The IC50 was 10 to 100 nM.

And the IC50 [1, 7]?
Its IC50 is 1 to 10 nM.

What about the IC50 [2, 5] of the same compound?
Its IC50 is 1 to 10 nM.

What about the IC50 [3, 6] of the same compound?
The IC50 was 1 to 10 nM.

How did the IC50 [1, 4] turn out when `CC(C)CN(C[C@@H](O)[C@H](Cc1ccc(OCc2ccccn2)cc1)NC(=O)O[C@H]1CO[C@H]2OCC[C@H]21)S(=O)(=O)c1ccc2c(c1)OCO2` [Compound 53, Bis-THF Methylenedioxybenzenesulfonamide 2-picolyl Tethered Product] was run?
Its IC50 is 1 to 10 nM.

What about the IC50 [1, 7] of the same compound?
Its IC50 is 1 to 10 nM.

And the IC50 [2, 5]?
Its IC50 is 1 to 10 nM.

What about the IC50 [3, 6] of the same compound?
The IC50 was 1 to 10 nM.

What does the source list for `CC(C)CN(C[C@@H](O)[C@H](Cc1ccc(OCc2ccncc2)cc1)NC(=O)O[C@H]1CO[C@H]2OCC[C@H]21)S(=O)(=O)c1ccc2c(c1)OCO2` [Compound 54, Bis-THF Methylenedioxybenzenesulfonamide 4-picolyl Tethered Product]?
IC50 [1, 4]: 10 to 100 nM; IC50 [1, 7]: 1 to 10 nM; IC50 [2, 5]: 1 to 10 nM; IC50 [3, 6]: 1 to 10 nM

What does the source list for `Cc1cc(COc2ccc(C[C@H](NC(=O)O[C@H]3CO[C@H]4OCC[C@H]43)[C@H](O)CN(CC(C)C)S(=O)(=O)c3ccc4c(c3)OCO4)cc2)no1` [Compound 55, Bis-THF Methylenedioxybenzenesulfonamide 3-methyl-5-methylisoxazole Tethered Product]?
IC50 [1, 7]: < 1 nM; IC50 [2, 5]: 1 to 10 nM; IC50 [3, 6]: 1 to 10 nM

`CC(C)CN(C[C@@H](O)[C@H](Cc1ccc(OCCc2ccccc2)cc1)NC(=O)O[C@H]1CO[C@H]2OCC[C@H]21)S(=O)(=O)c1ccc2c(c1)OCO2` [Compound 202, (3R,3aS,6aR)hexahydrofuro[2,3-b]furan-3-yl (1S,2R)-3-[(1,3-benzodioxol-5-ylsulfonyl)(isobutyl)amino]-2-hydroxy-1-[4-(phenethyloxy)benzyl]propylcarbamate] was tested. Which IC50 [1, 4] did it give?
Its IC50 is < 1 nM.

And the IC50 [2, 5]?
The IC50 was 1 to 10 nM.

And the IC50 [3, 6]?
The IC50 was < 1 nM.

`CC(C)CN(C[C@@H](O)[C@H](Cc1ccc(OCCCc2ccccc2)cc1)NC(=O)O[C@H]1CO[C@H]2OCC[C@H]21)S(=O)(=O)c1ccc2c(c1)OCO2` [Compound 203, (3R,3aS,6aR)hexahydrofuro[2,3-b]furan-3-yl (1S,2R)-3-[(1,3-benzodioxol-5-ylsulfonyl)(isobutyl)amino]-2-hydroxy-1-[4-([3-phenylpropyl]oxy)benzyl]propylcarbamate] was tested. Which IC50 [1, 4] did it give?
Its IC50 is < 1 nM.

And the IC50 ([2]; read-out: D545701-14 mutant - IC50, D545701-14 multi protease inhibitor resistant virus, MT4 cells)?
Its IC50 is 10 to 100 nM.

And the IC50 [3, 6]?
Its IC50 is 1 to 10 nM.

What does the source list for `CC(C)CN(C[C@@H](O)[C@H](Cc1ccc(OCCCC(F)(F)F)cc1)NC(=O)O[C@H]1CO[C@H]2OCC[C@H]21)S(=O)(=O)c1ccc2c(c1)OCCO2` [Compound 204, (3R,3aS,6aR)-hexahydrofuro[2,3-b]furan-3-yl (1S,2R)-3-[(2,3-dihydro-1,4-benzodioxin-6-ylsulfonyl)(isobutyl)amino]-2-hydroxy-1-[4-(4,4,4-trifluorobutoxy)benzyl]propylcarbamate]?
IC50 [1, 4]: 1 to 10 nM; IC50 [2, 5]: 1 to 10 nM; IC50 [3, 6]: 1 to 10 nM

What does the source list for `CC(C)CN(C[C@@H](O)[C@H](Cc1ccc(OCCc2ccc(F)cc2)cc1)NC(=O)O[C@H]1CO[C@H]2OCC[C@H]21)S(=O)(=O)c1ccc2c(c1)OCO2` [Compound 205]?
IC50 [1, 8]: 1 to 10 nM; IC50 [2, 9]: 10 to 100 nM; IC50 [3, 10]: 10 to 100 nM

Which results are given for `COc1ccc(CCOc2ccc(C[C@H](NC(=O)O[C@H]3CO[C@H]4OCC[C@H]43)[C@H](O)CN(CC(C)C)S(=O)(=O)c3ccc4c(c3)OCO4)cc2)cc1` [Compound 206]?
IC50 [1, 8]: 1 to 10 nM; IC50 [2, 9]: 10 to 100 nM; IC50 [3, 10]: 10 to 100 nM

How did the IC50 [1, 4] turn out when `CC(C)CN(C[C@@H](O)[C@H](Cc1ccc(OCCNC(=O)OC(C)(C)C)cc1)NC(=O)O[C@H]1CO[C@H]2OCC[C@H]21)S(=O)(=O)c1ccc2c(c1)OCO2` [Compound 219, (3R,3aS,6aR)-hexahydrofuro[2,3-b]furan-3-yl (1S,2R)-3-[(1,3-benzodioxol-5-ylsulfonyl)(isobutyl)amino]-1-(4-{2-[(tert-butoxycarbonyl)amino]ethoxy}benzyl)-2-hydroxypropylcarbamate] was run?
Its IC50 is 1 to 10 nM.

And the IC50 [2, 5]?
The IC50 was 1 to 10 nM.

What about the IC50 [3, 6] of the same compound?
The IC50 was 1 to 10 nM.

Which results are given for `CC(C)CN(C[C@@H](O)[C@H](Cc1ccc(OCCCNC(=O)OC(C)(C)C)cc1)NC(=O)O[C@H]1CO[C@H]2OCC[C@H]21)S(=O)(=O)c1ccc2c(c1)OCO2` [Compound 221, (3R,3aS,6aR)-hexahydrofuro[2,3-b]furan-3-yl (1S,2R)-3-[(1,3-benzodioxol-5-ylsulfonyl)(isobutyl)amino]-1-(4-{3-[(tert-butoxycarbonyl)amino]propoxy}benzyl)-2-hydroxypropylcarbamate]?
IC50 [1, 4]: 1 to 10 nM; IC50 [2, 5]: 1 to 10 nM; IC50 [3, 6]: 1 to 10 nM

Which results are given for `CC(C)CN(C[C@@H](O)[C@H](Cc1ccc(OCCCCNC(=O)OC(C)(C)C)cc1)NC(=O)O[C@H]1CO[C@H]2OCC[C@H]21)S(=O)(=O)c1ccc2c(c1)OCO2` [Compound 223, (3R,3aS,6aR)-hexahydrofuro[2,3-b]furan-3-yl (1S,2R)-3-(1,3-benzodioxol-5-ylsulfonyl)(isobutyl)amino-1-(4-{4-[(tert-butoxycarbonyl)amino]butoxy}benzyl)-2-hydroxypropylcarbamate]?
IC50 [1, 4]: 1 to 10 nM; IC50 [2, 5]: 1 to 10 nM; IC50 [3, 6]: 1 to 10 nM

With `COC(=O)NCCOc1ccc(C[C@H](NC(=O)O[C@H]2CO[C@H]3OCC[C@H]32)[C@H](O)CN(CC(C)C)S(=O)(=O)c2ccc3c(c2)OCO3)cc1` [Compound 226, (3R,3aS,6aR)-hexahydrofuro[2,3-b]furan-3-yl (1S,2R)-3-[(1,3-benzodioxol-5-ylsulfonyl)(isobutyl)amino]-2-hydroxy-1-(4-{2-[(methoxycarbonyl)amino]ethoxy}benzyl)propylcarbamate] as the compound, how does the IC50 [1, 4] read?
The IC50 was < 1 nM.

And the IC50 ([2]; Human immunodeficiency virus 1, MT4, read-out: D545701-14 mutant - IC50)?
The IC50 was 1 to 10 nM.

And the IC50 ([3]; Human immunodeficiency virus 1, MT4, read-out: EP13 mutant IC50)?
Its IC50 is < 1 nM.

`CC(=O)NCCCOc1ccc(C[C@H](NC(=O)O[C@H]2CO[C@H]3OCC[C@H]32)[C@H](O)CN(CC(C)C)S(=O)(=O)c2ccc3c(c2)OCO3)cc1` [Compound 229] was tested. Which IC50 [1, 8] did it give?
Its IC50 is 10 to 100 nM.

And the IC50 [2, 9]?
Its IC50 is 1 to 10 nM.

What about the IC50 [3, 10] of the same compound?
Its IC50 is 1 to 10 nM.
